Where a chain is given by its changes, count along the chain named.
Legend:
human P2X4 open channel = tested on: human P2X4 open channel; parameters: method as in Bidula et al. (2022); conditions: ref Bidula et al. (2022); cited from earlier work
[1] = target: T1, human P2X4 I312T (h4-I312T) (Homo sapiens, UniProt Q99571, I312T); experiment: ATP-induced calcium influx (Fluo-4) in 1321N1 cells stably expressing human P2X4 I312T; assay type: cell-based
T1 construct: expressed in transfected cells; host or cells: 1321N1 astrocytoma cells, stably transfected
T1 sequence (Q99571 1-388 I312T): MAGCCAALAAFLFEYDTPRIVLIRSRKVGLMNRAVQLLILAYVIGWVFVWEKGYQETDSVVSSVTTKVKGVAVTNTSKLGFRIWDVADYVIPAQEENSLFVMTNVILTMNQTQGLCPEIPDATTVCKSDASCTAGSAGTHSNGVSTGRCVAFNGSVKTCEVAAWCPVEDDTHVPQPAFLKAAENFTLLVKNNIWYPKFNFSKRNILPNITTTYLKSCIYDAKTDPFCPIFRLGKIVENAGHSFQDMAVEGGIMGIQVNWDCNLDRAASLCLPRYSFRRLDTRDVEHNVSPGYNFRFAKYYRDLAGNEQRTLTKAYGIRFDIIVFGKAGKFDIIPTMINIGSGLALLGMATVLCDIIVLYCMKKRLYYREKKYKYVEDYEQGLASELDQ
Method: Plasmid encoding rat P2X4 (r4-WT) ([Royle et al., 2005]) was a kind gift from Ruth Murrell-Lagnado, whilst that encoding human P2X4 with a C-terminal (His)10 tag has been reported previously ([Young et al., 2008]).
(§1) 1321N1 astrocytoma cells were cultured (at 37°C, 5% CO2) in Dulbecco’s modified Eagle’s medium (DMEM/F-12 with Glutamax) supplemented with 10% foetal bovine serum (FBS) and 200 unit/mL of penicillin and streptomycin antibiotics (Fisher Scientific). Stably transfected clones were grown in DMEM/F-12 with Glutamax medium supplemented with G-418 (Geneticin®, Fisher Scientific), 600 μg/mL and 150 μg/mL during selection and maintenance, respectively. […] Each cell line was then tested for P2X4 receptor expression by Western blot and for functionality using the Ca^2+ influx assay.
(§2) Cells were plated the day before assay into poly-lysine-coated 96-well plates at 40–55,000 cells/mL. […] Prior to assay, buffer was replaced with fresh modified Ringer’s buffer containing probenecid but not the dye. […] A Fluoroskan Ascent FL plate reader (Fisher Scientific) equipped with a solution dispenser and an appropriate filter pair (excitation: 485 nm, emission: 538 nm) was used to record 5-s baseline followed by P2X4-mediated calcium influx measurements for 20–25 s after ATP stimulation (final concentration ranging between 0.03 and 100 μM in buffered solution, pH = 7.4). The collected responses were normalized to the first data-point recorded after ATP injection.
(§3) Data processing and data analysis were carried out using Graphpad Prism version 6 for Mac. Figures are presented as Mean ± SEM. […] When comparing data obtained from multiple independent experiments (N), each dataset was normalized to the mean value obtained for the vehicle control.

[2] = target: T2, human P2X4 wild type (h4-WT) (Homo sapiens, UniProt Q99571); experiment: ATP-induced calcium influx (Fluo-4) in 1321N1 cells stably expressing human P2X4 wild type; assay type: cell-based; conditions: human vs rat P2X4
T2 construct: expressed in transfected cells; host or cells: 1321N1 astrocytoma cells, stably transfected
T2 sequence (Q99571 1-388): T1 sequence (Q99571 1-388 I312T) with T312I
Method: as §1, §2, §3

In the case of `CC(C)c1cc(Br)c(NC(=O)Nc2cccnc2)c(Br)c1` [BX430], the “capability of blocking the open channel” value (human P2X4 open channel) is listed as “capable of blocking the open channel”, the “decrease in BX-430 potency by I312T mutation in human P2X4” value ([1]; human P2X4 I312T vs human P2X4 WT) is listed as over 48 fold and the “Hill coefficient (BX-430 inhibition curve)” value ([1]; human P2X4 I312T, 1 µM ATP) is listed as 2.057. For the same molecule, the “potency at human P2X4 compared with the rat isoform” value [2] was “approximately 30 fold”.

Reference: PMC9947563, “Identification of the molecular determinants of antagonist potency in the allosteric binding pocket of human P2X4” (Frontiers in Pharmacology, 2023)
